Test results as given in patent US8859580B2 (Boehringer Ingelheim International GmbH, priority 2007, dated 2014).

target: T1, 11β-HSD1 (Homo sapiens, UniProt P28845); experiment: In vitro inhibition of 11β-HSD1, HTRF detection of cortisol generated from cortisone by human liver microsomes; format: biochemical; conditions: 11β-HSD IC50 (nM), 1 hour at 37° C., pH 6.0, NADPH 200 μM, cortisone 80 nM, inhibition relative to carbenoxolone signal
T1 construct: detecting cortisol generated from cortisterone by human liver microsomes; from tissue; host or cells: human liver microsomes
Summary of the method: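 Inhibition expressed against the carbenoxolone signal and fitted to IC50 curves. Readout: HTRF competition between microsomal cortisol and XL665-labelled cortisol for Eu-cryptate anti-cortisol antibody (typically 2 h), with emission ratio 665/615 calibrated to cortisol concentration.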

T1 sequence (P28845 whole entry): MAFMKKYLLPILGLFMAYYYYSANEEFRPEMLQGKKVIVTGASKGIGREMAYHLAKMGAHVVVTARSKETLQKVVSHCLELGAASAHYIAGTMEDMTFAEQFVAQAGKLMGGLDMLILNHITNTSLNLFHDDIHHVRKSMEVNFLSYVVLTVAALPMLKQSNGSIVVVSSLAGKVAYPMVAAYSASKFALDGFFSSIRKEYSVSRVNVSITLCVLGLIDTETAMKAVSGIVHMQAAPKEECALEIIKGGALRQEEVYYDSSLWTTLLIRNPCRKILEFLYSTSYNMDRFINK

| Compound | IC50 |
| --- | --- |
| CC(=O)Nc1cccc(C(=O)N2CC[C@@]3(C)c4cccc(O)c4C[C@@H]2C3(C)C)c1 [Example 9, N-{3-[(2R,6S)-10-Hydroxy-6,11,11-trimethyl-1,2,5,6-tetrahydro-4H-2,6-methano-benzo[d]azocine-3-carbonyl]-phenyl}-acetamide] | 1980 nM |
| CC1(C)[C@H]2Cc3c(O)cccc3[C@]1(C)CCN2C(=O)c1ccc(N2CCOCC2)cc1 [Example 25, [(2R,6S)-10-Hydroxy-6,11,11-trimethyl-1,2,5,6-tetrahydro-4H-2,6-methano-benzo[d]azocin-3-yl]-(4-morpholin-4-yl-phenyl)-methanone] | 686 nM |
| COC(=O)c1ccc2c(c1)[C@]1(C)CCN(C(=O)c3ccc4nc[nH]c4c3)[C@H](C2)[C@H]1C [Example 341, (2R,6R,11S)-3-(3H-Benzoimidazole-5-carbonyl)-6,11-dimethyl-1,2,3,4,5,6-hexahydro-2,6-methano-benzo[d]azocine-8-carboxylic acid methyl ester] | 601 nM |
| COc1ccc2c(c1NS(C)(=O)=O)[C@]1(C)CCN(C(=O)c3ccc4nc[nH]c4c3)[C@H](C2)[C@H]1C [Example 268, N-[(2R,6R,11S)-3-(3H-Benzoimidazole-5-carbonyl)-8-methoxy-6,11-dimethyl-1,2,3,4,5,6-hexahydro-2,6-methano-benzo[d]azocin-7-yl]-methanesulfonamide] | 931 nM |
| CC(C)(C)c1nc2cc3c(cc2[nH]1)[C@]1(C)CCN(C(=O)c2ccc4nc[nH]c4c2)[C@H](C3)C1(C)C [Example 273, (3H-Benzoimidazol-5-yl)-[(6R,10S)-2-tert-butyl-5,6,7,8,9,10-hexahydro-10,12,12-trimethyl-6,10-methano-imidazo[5,4-i][3]benzazocin-7-yl]-methanone] | 35 nM |
| CCN(CC)C(=O)c1ccc(C(=O)N2CC[C@@]3(C)c4cccc(O)c4C[C@@H]2C3(C)C)cc1 [Example 168, N,N-Diethyl-4-[(2R,6S)-10-hydroxy-6,11,11-trimethyl-1,2,5,6-tetrahydro-4H-2,6-methano-benzo[d]azocine-3-carbonyl]-benzamide] | 561 nM |
| CC(C)(O)c1ccc2c(c1)[C@]1(C)CCN(C(=O)c3ccc4nc[nH]c4c3)[C@H](C2)C1(C)C [Example 229, (3H-Benzoimidazol-5-yl)-[(2R,6S)-8-(1-hydroxy-1-methyl-ethyl)-6,11,11-trimethyl-1,2,5,6-tetrahydro-4H-2,6-methano-benzo[d]azocin-3-yl]-methanone] | 68 nM |
| CCC12CCN(C(=O)c3ccc4nc[nH]c4c3)C(Cc3ccc(O)cc31)C2(C)C (stereo not drawn) [Example 89, (3H-Benzoimidazol-5-yl)-(6-ethyl-8-hydroxy-11,11-dimethyl-1,2,5,6-tetrahydro-4H-2,6-methano-benzo[d]azocin-3-yl)-methanone] | 62 nM |
| Cc1cccc(C(=O)N2CC[C@@]3(C)c4cccc(O)c4C[C@@H]2C3(C)C)c1 [Example 7, [(2R,6S)-10-Hydroxy-6,11,11-trimethyl-1,2,5,6-tetrahydro-4H-2,6-methano-benzo[d]azocin-3-yl]-m-tolyl-methanone] | 262 nM |
| Cc1nc2ccc(C(=O)N3CC[C@@]4(C)c5cccc(O)c5C[C@@H]3C4(C)C)cc2[nH]1 [Example 17, [(2R,6S)-10-Hydroxy-6,11,11-trimethyl-1,2,5,6-tetrahydro-4H-2,6-methano-benzo[d]azocin-3-yl]-(2-methyl-3H-benzoimidazol-5-yl)-methanone] | 1380 nM |
| Cc1cc2c(cc1O)C[C@@H]1N(C(=O)c3ccc4nc[nH]c4c3)CC[C@@]2(C)C1(C)C (stereo in doubt) [Example 68, (3H-Benzoimidazol-5-yl)-[(2S,6R)-9-hydroxy-6,8,11,11-tetramethyl-1,2,5,6-tetrahydro-4H-2,6-methano-benzo[d]azocin-3-yl]-methanone] | 372 nM |
| CC1(C)C(=O)Nc2ccc(C(=O)N3CC[C@@]4(C)c5ccccc5C[C@@H]3C4(C)C)cc21 [Example 308, 3,3-Dimethyl-5-[(2R,6S)-6,11,11-trimethyl-1,2,5,6-tetrahydro-4H-2,6-methano-benzo[d]azocine-3-carbonyl]-1,3-dihydro-indol-2-one] | 210 nM |
| CC1(C)[C@H]2Cc3ccccc3[C@]1(C)CCN2C(=O)c1cc(Cl)c(O)c(Cl)c1 [Example 320, (3,5-Dichloro-4-hydroxy-phenyl)-[(2R,6S)-6,11,11-trimethyl-1,2,5,6-tetrahydro-4H-2,6-methano-benzo[d]azocin-3-yl]-methanone] | 165 nM |
| COC12CCN(C(=O)c3ccc4nc[nH]c4c3)C(Cc3ccccc31)C2(C)C (stereo not drawn) [Example 103, (3H-Benzoimidazol-5-yl)-(6-methoxy-11,11-dimethyl-1,2,5,6-tetrahydro-4H-2,6-methano-benzo[d]azocin-3-yl)-methanone] | 86 nM |
| CC(=O)c1ccc(C(=O)N2CC[C@@]3(C)c4cccc(O)c4C[C@@H]2C3(C)C)cc1 [Example 28, 1-{4-[(2R,6S)-10-Hydroxy-6,11,11-trimethyl-1,2,5,6-tetrahydro-4H-2,6-methano-benzo[d]azocine-3-carbonyl]-phenyl}-ethanone] | 3680 nM |
| Cc1nc2cc3c(cc2[nH]1)[C@]1(C)CCN(C(=O)c2ccc4nc[nH]c4c2)[C@H](C3)C1(C)C [Example 238, (3H-Benzoimidazol-5-yl)-[(6R,10S)-5,6,7,8,9,10-hexahydro-2,10,12,12-tetramethyl-6,10-methano-1H-imidazo[5,4-i][3]benzazocin-7-yl]-methanone] | 24 nM |
| Cc1cnc2cc3c(cc2n1)C[C@H]1N(C(=O)c2ccc4nc[nH]c4c2)CC[C@]3(C)C1(C)C [Example 254, (3H-Benzoimidazol-5-yl)-[(7R,11S)-6,7,8,9,10,11-hexahydro-3,11,13,13-tetramethyl-7,11-methano-pyrazino[2,3-i][3]benzazocin-8-yl]-methanone] | 742 nM |
| CC1(C)[C@H]2Cc3cc4nc(C5CC5)[nH]c4cc3[C@]1(C)CCN2C(=O)c1ccc2nc[nH]c2c1 [Example 271, (3H-Benzoimidazol-5-yl)-[(6R,10S)-2-cyclopropyl-5,6,7,8,9,10-hexahydro-10,12,12-trimethyl-6,10-methano-imidazo[5,4-i][3]benzazocin-7-yl]-methanone] | 50 nM |
| CCNC(=O)c1ccc(C(=O)N2CC[C@@]3(C)c4cccc(O)c4C[C@@H]2C3(C)C)cc1 [Example 138, N-Ethyl-4-[(2R,6S)-10-hydroxy-6,11,11-trimethyl-1,2,5,6-tetrahydro-4H-2,6-methano-benzo[d]azocine-3-carbonyl]-benzamide] | 2810 nM |
| CC1C2Cc3ccc(O)cc3C1(C)CCN2C(=O)c1ccccc1 (stereo not drawn) [Example 105, (8-Hydroxy-6,11-dimethyl-1,2,5,6-tetrahydro-4H-2,6-methano-benzo[d]azocin-3-yl)-phenyl-methanone] | 1330 nM |
| CC1CN(Cc2ccc(C(=O)N3CC[C@@]4(C)c5cccc(O)c5C[C@@H]3C4(C)C)cc2)CCO1 (stereo partly drawn) [Example 142] | 689 nM |
| Cn1cnc2cc(C(=O)N3CC[C@@]4(C)c5cccc(O)c5C[C@@H]3C4(C)C)ccc21 [Example 19, [(2R,6S)-10-Hydroxy-6,11,11-trimethyl-1,2,5,6-tetrahydro-4H-2,6-methano-benzo[d]azocin-3-yl]-(1-methyl-1H-benzoimidazol-5-yl)-methanone] | 658 nM |
| CC(C)(O)c1cccc(C(=O)N2CC[C@@]3(C)c4ccccc4C[C@@H]2C3(C)C)c1 [Example 317, [3-(1-Hydroxy-1-methyl-ethyl)-phenyl]-[(2R,6S)-6,11,11-trimethyl-1,2,5,6-tetrahydro-4H-2,6-methano-benzo[d]azocin-3-yl]-methanone] | 217 nM |
| CC1(C)[C@H]2Cc3cc4oc([C@@H]5CCCO5)nc4cc3[C@]1(C)CCN2C(=O)c1ccc2nc[nH]c2c1 [Example 338, (3H-Benzoimidazol-5-yl)-[(6R,10S)-5,6,7,8,9,10-hexahydro-10,12,12-trimethyl-2-[(S)-tetrahydrofuran-2-yl]-6,10-methano-oxazolo[4,5-i][3]benzazocin-7-yl]-methanone] | 63 nM |
| C[C@@H]1[C@H]2Cc3cc4nc[nH]c4cc3[C@]1(C)CCN2C(=O)c1ccc2nc[nH]c2c1 [Example 224, (3H-Benzoimidazol-5-yl)-[(6R,10R,12S)-5,6,7,8,9,10-hexahydro-10,12-dimethyl-6,10-methano-1H-imidazo[5,4-i][3]benzazocin-7-yl]-methanone] | 21 nM |
| CCN(CC)Cc1ccc(C(=O)N2CC[C@@]3(C)c4cccc(O)c4C[C@@H]2C3(C)C)cc1 [Example 119, (4-Diethylaminomethyl-phenyl)-[(2R,6S)-10-hydroxy-6,11,11-trimethyl-1,2,5,6-tetrahydro-4H-2,6-methano-benzo[d]azocin-3-yl]-methanone] | 1550 nM |
| CC[C@]12CCN(C(=O)c3ccc4nc[nH]c4c3)[C@H](Cc3ccc(O)cc31)[C@H]2C (racemic) [Example 200, (3H-Benzoimidazol-5-yl)-(6-ethyl-8-hydroxy-11-methyl-1,2,5,6-tetrahydro-4H-2,6-methano-benzo[d]azocin-3-yl)-methanone] | 117 nM |
| Cc1cc2c(cc1O)[C@@]1(C)CCN(C(=O)c3ccc4nc[nH]c4c3)[C@@H](C2)C1(C)C (stereo in doubt) [Example 66, (3H-Benzoimidazol-5-yl)-[(2S,6R)-8-hydroxy-6,9,11,11-tetramethyl-1,2,5,6-tetrahydro-4H-2,6-methano-benzo[d]azocin-3-yl]-methanone] | 822 nM |
| CC[C@@H]1[C@H]2Cc3ccc(O)cc3[C@]1(CC)CCN2C(=O)c1ccc2nc[nH]c2c1 (racemic) [Example 85, (3H-Benzoimidazol-5-yl)-(6,11-diethyl-8-hydroxy-1,2,5,6-tetrahydro-4H-2,6-methano-benzo[d]azocin-3-yl)-methanone] | 89 nM |
| CC1(C)[C@H]2Cc3c(O)cccc3[C@]1(C)CCN2C(=O)c1ccc2scnc2c1 [Example 45, Benzothiazol-5-yl-[(2R,6S)-10-hydroxy-6,11,11-trimethyl-1,2,5,6-tetrahydro-4H-2,6-methano-benzo[d]azocin-3-yl]-methanone] | 384 nM |
